Experimental data published in patent publication US20230226079A1, “METHODS AND COMPOSITIONS FOR TREATMENT OF SOLID TUMORS” (Saint Louis University, priority 2022, published 2023).
Values after ≈ are worked out from the molar mass of the structure shown. “Also recorded” adds a separate entry of the source.

Key:
[1] = test system: normal mammary epithelial cells; test: Cytotoxicity in normal mammary epithelial cells; format: cell-based, human
[2] = test system: c-Met and c-Myc; test: Western blot of JHU029 tumor lysates; format: in vivo, nude mice; details: JHU029 xenograft tumors
Procedure: Lysates from control, BME or M-I treated cells and tumors were prepared using 2 SDS sample buffer and subjected to western blot analysis using specific antibodies to c-Met (1:500, Cell Signaling Technology, CST, Denvers, Mass., USA,), phospho-STAT3 (pSTAT3-Tyr-705) (1:1000, CST), total STAT3 (1:1000, CST), c-Myc (1:1000, CST), surviving (1:500, Santa Cruz Biotechnology, SBT, Dallas, Tex., USA) and cyclin D1 (1: 500, SBT). HRP conjugated anti-mouse or anti-rabbit secondary antibodies were purchased from Bio-Rad (Hercules, Calif., USA). The blot was reprobed with HRP conjugated -actin antibody (1:5000; SBT) to compare protein load in each lane. Densitometry analysis was done using Image J software (NIH, Bethesda, Md., USA).
JHU029 or Ca127 cells (1.5 10^6) containing 40% Matrigel were injected subcutaneously into the flank of BALB/c athymic nude mice (7-8 weeks old). When the palpable tumor was developed (>60 mm3), mice were divided into three groups randomly, 5 mice in each group. The control group was without any treatment. The BME group received 30% (v/v) BME through drinking water. M-I group received 30 mg/kg dose of M-I once in day, every day. Body weight was monitored, and tumor size was measured using a slide caliper and volume was calculated using the formula 1/2 L X W2. After animal sacrifice tumors were dissected out and snap frozen in liquid nitrogen for further analysis. […]

[3] = literature; listed as Momordicine I; cited from earlier work
[4] = test system: TNBC cell lines MDA-MB-231, BT459 and MDA-MB-468; test: TNBC cell cytotoxicity assays; format: cell-based
Source text: (§1) The Inventors tested human MDA-MB-231 and mouse 4T1 cells in dose dependent manner (FIG. 8). […] The Inventors also tested other compounds in TNBC cell cytotoxicity assays, but these required much higher amounts (>[…]) even for ˜40% cell death.

[5] = test system: MDA-MB-231 cells; test: Cell viability of MDA-MB-231 cells; format: cell-based; details: Homo sapiens, 72h
Procedure: (§2) FIG. 8 illustrates 4T1 and MDA-MB-231 cells treated with M-I at indicated doses for 72h. The viability of control cells was arbitrarily set to 100%. Results shown are an average of three independent experiments. Data are represented as mean±SD.
as §1

[6] = Toxicity study, 5 days; format: in vivo; details: BME 30% in drinking water
Procedure: For toxicity study, C57B1/6 male mice were received either 30% BME through drinking water or 20 mg/kg of M-I twice a day or 30 mg/kg of M-I once a day by IP injection for 5 days. There were three mice in each group, including untreated control. Blood was collected on day 6, and serum was prepared. Serum parameters related to hepatotoxicity (total bilirubin, alanine transaminase, aspartate transaminase, and alkaline phosphatase) and nephrotoxicity (urea and creatinine) were performed.

[7] = test system: HNC (JHU022, JHU029, Ca127) cell lines; format: cell-based
Procedure: Ca127, JHU029, JHU022 and NOK were seeded in 96 well-plate (5000 cells/well) and cells were treated with different concentration of M-I for 48 h. There were untreated control and DMSO treated vehicle control group for comparison. Cytotoxicity assay was performed using Cell Counting Kit-8 (Dojindo Molecular Technology, Rockville, Md., USA) according to manufacturer instruction.
Due to their limited reported biology, the Inventors have selected a few triterpenoids and triterpene glycosides, based on their availability, for preliminary in vitro screening against HNC (JHU022, JHU029, Ca127) cell lines. The Inventors identified momordicine-I (M-I) as one of the chemical constituents at the retention time of 21.06 min in the BME (FIG. 1A). The M-I [C30H4804, PubChem CID: 14807332; IUPAC Name: (3S, 7S, 8S, 9R, 10R, 13R, 14S, 17R) 3,7-dihydroxy-17-(4-hydroxy-6-methylhept-5-en-2-yl)-4,4,13,14-tetramethyl-2,3,7,8,10,11, 12,15, 16,17-decahydro-1H-cyclopenta[a]phenanthrene-9-carbaldehyde] is a white crystalline solid that belongs to the cucurbitane-type triterpene class (FIG. 1B). […] Other compounds, mom ordicoside K (MK), and karavilagenin D (KD), were also examined on HNC cell cytotoxicity assay. These, two other compounds required much higher amounts (>50 ug/mL) even for -40% cell death.

[8] = test system: 4T1 cells; test: Cell viability of 4T1 cells; format: cell-based; details: Mus musculus, 72h
Procedure: as §2, §1

[9] = test system: c-Myc, survivin and cyclin D1; test: Western blot for STAT3 downstream molecules in HNC cells; format: cell-based; details: Ca127 and JHU029 cells
Procedure: The powder was dissolved in DMSO and added to the cells at different concentrations. Based on cytotoxicity data, Ca127 and JHU029 cells were treated with 10 ug/mL and JHU022 cells were treated with 20 ug/mL dose of M-I and incubated for 48 hr for further experiments. All the experiments were done at least in triplicate.

[10] = test system: rat cardiac fibroblasts; details: cited from earlier work
[11] = Pharmacokinetic study, single dose; format: in vivo, mice; details: for AUC (% Extrap): C57BI/6 male mice
Procedure: The pharmacokinetic (PK) study of M-I was performed in male C57B1/6 mice. A single dose of M-I (formulated at 2 mg/mL dissolved in 5% DMSO/95% of a 30% w:v Captisol solution) was administered either by intraperitoneal injection (IP group, n=3) or oral gavage (PO group, n=3). After dosing, 20 uL blood samples were collected into heparin pre-coated tubes at 5 min, 15 min, 30 min, 1 h, 2 h, 4 h, 6 h, 8 h and 24 h. Samples were centrifuged, and the plasma collected. M-I concentration was determined using liquid chromatography-mass spectrometry/mass spectrometry (LC-MS/MS) as described earlier (Fuerst et al. (2018) Chem.; 26, 4984-4995).

CC(C)=CC(O)CC(C)[C@H]1CC[C@@]2(C)[C@@H]3[C@@H](O)C=C4[C@@H](CC[C@H](O)C4(C)C)[C@]3(C=O)CC[C@]12C (stereo partly drawn) [M-I, (3S, 7S, 8S, 9R, 10R, 13R, 14S, 17R) 3,7-dihydroxy-17-(4-hydroxy-6-methylhept-5-en-2-yl)-4,4,13,14-tetramethyl-2,3,7,8,10,11, 12,15, 16,17-decahydro-1H-cyclopenta[a]phenanthrene-9-carbaldehyde]
effect on human normal mammary epithelial cells [1]: minimum effect
expression of c-Met and c-Myc in tumors versus untreated control [2]: significant reduction
Reported Biology [3]: stimulate insulin; also recorded: cardiac fibrosis
cell growth of TNBC cell lines [4]: inhibits cell growth in a time-dependent manner
IC50 [5]: 12 µg/mL (≈ 25.4 µM)
body weight in toxicity study ([6]; M-I 20 mg/kg twice a day or 30 mg/kg once a day IP, five days): stable
serum total bilirubin, alanine transaminase, aspartate transaminase, alkaline phosphatase, creatinine, urea and glucose versus untreated control ([6]; blood on day six, M-I IP five days): comparable
inhibition of HNC cells in cytotoxicity assay [7]: inhibited HNS cells in a dose-dependent manner
IC50 [8]: 5 µg/mL (≈ 10.6 µM)
STAT3 downstream molecules c-Myc, survivin and cyclin D1 [9]: significant inhibition
high-glucose-induced cell proliferation and collagen synthesis [10]: inhibitory effects
adverse events after single dose, IP group ([11]; 20 mg/kg IP): No adverse events
adverse events after single dose, oral group ([11]; 20 mg/kg PO, starting four hours post-dose, not resolved by 8 h, normal after twenty-four hours): loose stool
AUC (% Extrap) ([11]; 20 mg/Kg IP): 0.33 ± 0.08%
AUC (% Extrap) ([11]; 20 mg/Kg PO): 6.84 ± 1.5%
